According to patent publication US4241053A, “Novel nitrosourea compounds and process for preparing the same” (Tanabe Seiyaku Co., Ltd., priority 1978, dated 1980):

What was measured:
[1] = test system: Ehrlich ascites carcinoma; test: Preventive effect against the growth of Ehrlich ascites tumor (Method A); assay type: in vivo, mice (female ICR); conditions: for inhibition in vivo at 3.12 mg/kg: 3.12 mg/kg/day i.p.; for inhibition in vivo at 6.25 mg/kg: 6.25 mg/kg/day i.p.; for inhibition in vivo at 12.5 mg/kg: 12.5 mg/kg/day i.p.; for inhibition in vivo at 1.56 mg/kg: 1.56 mg/kg/day i.p.; for inhibition in vivo at 200 mg/kg: 200 mg/kg/day i.p.; for minimal effective dose: minimum dose with 100% inhibition of ascites tumor, unit from dose column, read-out: MED (Minimum Effective Dose); for therapeutic index (M.T.D./M.E.D.) relative to that of GANU: Ehrlich ascites tumor, greater than that of GANU; for inhibition in vivo at 0.78 mg/kg: 0.78 mg/kg/day i.p.; for inhibition in vivo at 0.09 mg/kg: 0.09 mg/kg/day i.p.; for inhibition in vivo at 0.19 mg/kg: 0.19 mg/kg/day i.p.; for inhibition in vivo at 0.39 mg/kg: 0.39 mg/kg/day i.p.; for inhibition in vivo at 25 mg/kg: 25 mg/kg/day i.p.
Description: (§1) (A) Preventive effect against the growth of Ehrlich ascites tumor:
(§2) 10^6 tumor cells of Ehrlich ascites carcinoma were inoculated intraperitoneally into a group of five femal mice (ICR mice, body weight: 19-23 g). A test compound was dissolved in a physiological saline solution [In the case where CCNU was employed as the test compound, said compound was suspended in a physiological saline solution containing 0.1% NIKKOL HCO-60 (trademark; a surface active agent manufactured by Nikko Chemicals Co. Ltd.)] and administered intraperioneally to the mice. The administration of the test compound was begun 24 hours after the inoculation of the tumor cells and performed once a day for 5 days. The volume of ascites in the treated mice were measured after 7 days of the experiment.
(§3) ^a T = the average volume of ascites in the treated mice
(§4) C = the average volume of ascites in the untreated mice (control group of
(§5) 100% inhibition for the growth of Ehrlich ascites tumor in mice without
(§6) causing the death of said mice)
(§7) 100% inhibition for the growth of said ascites tumor)
(§8) ^e Therapeutic index = MTD/MED
(§9) *the number of mice died/the number of mice used

[2] = as above; assay type: in vivo, mice (female ICR); conditions: mouse, in vivo, ip; maximum dose with 100% inhibition of Ehrlich ascites tumor without causing death; unit from dose column; read-out: MTD (Maximum Tolerated Dose)
Description: as §1, §2, §3, §4, §5, §6, §7, §8, §9

Leukemia L-1210 = test: Effect on the life span of mice implanted with leukemic cells of L-1210 (Method B); assay type: in vivo, mice (male BDF1); conditions: for ILS at 6.25 mg/kg / responders at 6.25 mg/kg: 6.25 mg/kg/day i.p.; for ILS at 25 mg/kg / responders at 25 mg/kg: 25 mg/kg/day i.p.; for ILS at 50 mg/kg / responders at 50 mg/kg: 50 mg/kg/day i.p.; for ILS at 12.5 mg/kg / responders at 12.5 mg/kg: 12.5 mg/kg/day i.p.
Description: (B) Effect on the life span of mice implanted with leukemic cells of L-1210:
10^5 leukemic cells of L-1210 were inoculated intraperitoneally into a group of four or six male mice (BDF1 mice, body weight: 19-23 g). A test compound was dissolved in a physiological saline solution and administered intraperitoneally to the mice. The administration of the test compound was begun 24 hours after the inoculation of the leukemic cells and performed once a day for 5 days. The survival days of the treated mice were observed.
^a T = the mean survival days of the treated mice
C = the mean survival days of the untreated mice (control group of mice)
^b ILS(Increase in Life Span) =-
^c 60day survivors = the number of mice survived for 60 days/the

[3] = 100 mg/kg/day i.p., once a day for 5 days
[4] = Mus musculus, Ehrlich, ip, 168 h, once a day for 5 days, read-out: Inhibition ratio
[5] = Mus musculus, Ehrlich, ip, 168 h, 50 mg/kg/day i.p., once a day for 5 days, read-out: Inhibition ratio
[6] = 400 mg/kg/day i.p., once a day for 5 days
[7] = Mus musculus, Ehrlich, ip, 168 h
[8] = Mus musculus, L1210, ip, 120 h, once a day for 5 days, read-out: ILS (Increase in Life Span)
[9] = Mus musculus, L1210, ip, 1440 h, once a day for 5 days, read-out: 60-day survivors (mice survived for 60 days/mice used) (converted)

SMILES | Toxic (number of mice died/number of mice used) [1, 3] | inhibition in vivo at 3.12 mg/kg [1, 4] | inhibition in vivo at 12.5 mg/kg [1, 4] | inhibition in vivo at 50 mg/kg [1, 5] | MTD at 168 h [2] | Therapeutic index (MTD/MED) [1] | inhibition in vivo at 1.56 mg/kg [1, 4] | minimal effective dose [1, 7] | ILS at 6.25 mg/kg (Leukemia L-1210; [8]) | ILS at 25 mg/kg (Leukemia L-1210; [8]) | ILS at 50 mg/kg (Leukemia L-1210; [8]) | responders at 6.25 mg/kg (Leukemia L-1210; [9]) | responders at 25 mg/kg (Leukemia L-1210; [9]) | responders at 50 mg/kg (Leukemia L-1210; [9]) | inhibition in vivo at 0.78 mg/kg [1, 4] | ILS at 12.5 mg/kg (Leukemia L-1210; [8]) | responders at 12.5 mg/kg (Leukemia L-1210; [9]) | inhibition in vivo at 0.09 mg/kg [1, 4] | inhibition in vivo at 0.19 mg/kg [1, 4] | inhibition in vivo at 0.39 mg/kg [1, 4] | further results
O=NN(CCCl)C(=O)NC1CCCCC1 [CCNU, 1-(2-chloroethyl)-1-nitroso-3-cyclohexylurea, reference compound] | 5/5 | 21.1% | 100% | 100% | 50 mg/kg/day | – | – | – | – | – | – | – | – | – | – | – | – | – | – | – | inhibition in vivo at 6.25 mg/kg [1, 4]: 33.3%
COC(C)CN(C(=O)N(CCCl)N=O)C1O[C@H](CO)[C@@H](O[C@H]2O[C@H](CO)[C@@H](O)[C@H](O)[C@H]2O)[C@H](O)[C@H]1O (stereo partly drawn) [Compound 1, 1-(2-chloroethyl)-1-nitroso-3-(2-methoxy-n-propyl)-3-[O-α-D-glucopyranosyl-(1→4)-D-glucopyranosyl]urea] | – | 100% | 100% | 100% | 200 mg/kg/day | 64 | 4.4% | 3.12 mg/kg/day | – | – | – | – | – | – | – | – | – | – | – | – | Toxic (number of mice died/number of mice used) [1, 6]: 4/5; inhibition in vivo at 200 mg/kg [1, 4]: 100%
COCC(C)N(C(=O)N(CCCl)N=O)C1O[C@H](CO)[C@@H](O[C@H]2O[C@H](CO)[C@@H](O)[C@H](O)[C@H]2O)[C@H](O)[C@H]1O (stereo partly drawn) [Compound 2, 1-(2-chloroethyl)-1-nitroso-3-(1-methyl-2-methoxy-ethyl)-3-[O-α-D-glucopyranosyl-(1→4)-D-glucopyranosyl]urea] | – | 100% | 100% | 100% | 200 mg/kg/day | 128 | 100% | 1.56 mg/kg/day | 85.7% | > 604% | > 757% | 0% | 75% | 100% | -8.6% | – | – | – | – | – | ILS at 100 mg/kg (Leukemia L-1210; Mus musculus, L1210, ip, 120 h, 100 mg/kg/day i.p., once a day for 5 days, read-out: ILS (Increase in Life Span)): > 757%; responders at 100 mg/kg (Leukemia L-1210; Mus musculus, L1210, ip, 1440 h, 100 mg/kg/day i.p., once a day for 5 days, read-out: 60-day survivors (mice survived for 60 days/mice used) (converted)): 100%; Toxic (number of mice died/number of mice used) [1, 6]: 2/5; therapeutic index (M.T.D./M.E.D.) relative to that of GANU [1]: 4 times; inhibition in vivo at 200 mg/kg [1, 4]: 100%
COCCN(C(=O)N(CCCl)N=O)C1OC[C@H](O)[C@H](O)[C@H]1O (stereo partly drawn) [Compound 3, 1-(2-chloroethyl)-1-nitroso-3-(2-methoxyethyl)-3-(L-arabinopyranosyl)urea] | 3/5 | 100% | 100% | 100% | 50 mg/kg/day | 128 | – | 0.39 mg/kg/day | 87.5% | > 733% | > 615% | 0% | 100% | 83.3% | 100% | > 556% | 66.7% | 13.5% | 55.6% | 100% | –
COCCCN(C(=O)N(CCCl)N=O)C1OC[C@H](O)[C@H](O)[C@H]1O (stereo partly drawn) [Compound 4, 1-(2-chloroethyl)-1-nitroso-3-(3-methoxy-n-propyl)-3-(L-arabinopyranosyl)urea] | 2/5 | 100% | 100% | 100% | 50 mg/kg/day | 128 | – | 0.39 mg/kg/day | 97.2% | > 733% | > 733% | 0% | 100% | 100% | 100% | > 324% | 33.3% | 18.4% | 44.9% | 100% | therapeutic index (M.T.D./M.E.D.) relative to that of GANU [1]: 4 times
COC(C)CN(C(=O)N(CCCl)N=O)C1OC[C@H](O)[C@H](O)[C@H]1O (stereo partly drawn) [Compound 5, 1-(2-chloroethyl)-1-nitroso-3-(2-methoxy-n-propyl)-3-(L-arabinopyranosyl)urea] | 4/5 | 100% | 100% | 100% | 50 mg/kg/day | 128 | – | 0.39 mg/kg/day | 91.7% | > 733% | > 678% | 0% | 100% | 75% | 100% | > 529% | 75% | 8.2% | 36.7% | 100% | increase in the average life span (Leukemia L-1210; daily dose 0.5 mg/kg i.p., five consecutive days): about 30%
COCCN(C(=O)N(CCCl)N=O)C1OC[C@@H](O)[C@H](O)[C@H]1O (stereo partly drawn) [Compound 10, 1-(2-chloroethyl)-1-nitroso-3-(2-methoxyethyl)-3-(D-xylopyranosyl)urea] | – | – | – | – | 25 mg/kg/day | 64 | 100% | 0.39 mg/kg/day | – | – | – | – | – | – | – | – | – | 25% | 89.6% | 100% | Toxic (number of mice died/number of mice used) ([1]; 50 mg/kg/day i.p., once a day for 5 days): 2/5; inhibition in vivo at 0.04 mg/kg ([1]; Mus musculus, Ehrlich, ip, 168 h, 0.04 mg/kg/day i.p., once a day for 5 days, read-out: Inhibition ratio): 2.1%; inhibition in vivo at 6.23 mg/kg ([1]; Mus musculus, Ehrlich, ip, 168 h, 6.23 mg/kg/day i.p., once a day for 5 days, read-out: Inhibition ratio): 100%; inhibition in vivo at 25 mg/kg [1, 4]: 100%
COCCN(C(=O)N(CCCl)N=O)C1O[C@H](CO)[C@@H](O)[C@H](O)[C@@H]1O (stereo partly drawn) [Compound 11, 1-(2-chloroethyl)-1-nitroso-3-(2-methoxyethyl)-3-(D-mannopyranosyl)urea] | – | 64% | – | – | 400 mg/kg/day | 64 | 14% | 6.25 mg/kg/day | – | – | – | – | – | – | – | – | – | – | – | – | Toxic (number of mice died/number of mice used) ([1]; 800 mg/kg/day i.p., once a day for 5 days): 5/5; inhibition in vivo at 6.25 mg/kg [1, 4]: 100%; inhibition in vivo at 25 mg/kg [1, 4]: 100%; inhibition in vivo at 100 mg/kg ([1]; Mus musculus, Ehrlich, ip, 168 h, 100 mg/kg/day i.p., once a day for 5 days, read-out: Inhibition ratio): 100%; inhibition in vivo at 400 mg/kg ([1]; Mus musculus, Ehrlich, ip, 168 h, 400 mg/kg/day i.p., once a day for 5 days, read-out: Inhibition ratio): 100%
